Assay results reported in article PMC5218480 (PLoS ONE, 2017).

Tested on: MV-4-11 cells
Assay: Gene expression microarray analysis (Affymetrix PrimeView) and GSEA
Type: cell-based, human
Details: ProbeSet 11758779_at; LIST B

## Nc1ccc(-c2cccs2)cc1NC(=O)c1ccc2c(c1)cc(C1CC1)n2CCN1CCOCC1 [ACY-1035]
  RFU, TMEM50B: 85.32 RFU
